# Test results published in US5756505A, “N-acylpiperazine derivative, antibacterial drug and anti-ulcer drug” (Shiseido Co., Ltd., priority 1995, dated 1998).
# Assays:
# [1] = cited from earlier work
# stress ulcer formation = assay: WIS: Restraint and Water Immersion Stress-Induced Ulcer Inhibition Test; assay type: in vivo, rat (male Crj:SD or Slc:SD); details: rat; for WIS: ulcer formation inhibitory rate: 100 mg/kg oral, 7 hours stress
# Procedure: WIS: Restraint and Water Immersion Stress-Induced Ulcer Inhibition Test
# The degree of inhibition of the stress ulcer formation is tested.
# Male Crj:SDor Slc:SD rats (6 to 7-week-old) were fasted overnight, but allowed free access to water. Each group has 5 to 8 of these rats. The sample compound was dissolved or suspended in an aqueous solution of 0.3% sodium carboxymethylcellulose or 0.05% Tween 80 and then was orally administered (100 mg/10 ml/kg). To a control group, the vehicle was administered. 10 minuts later, the rats were placed in a stress cage and immersed to the level of xipfoid process in a water bath (21° C.) for 7 hours. At the end of the stress, the rats were sacrificed by inhalation of ether or carbon dioxide. Then, the stomach of each was removed, inflated by injecting 10 ml of 5% formalin neutral buffer solution, and immersed in 1% formalin neutral buffer solution for 30 minutes or more to be fixed. The stomach was incised along the greater curvature and then the length of each erosion in the glandular portion was determined under dissecting microscope. The sum of the length of erosions per stomach was defined as ulcer index (UI).
# The effect obtained when 100 mg/kg of the sample compound had been administered was expressed as ulcer formation inhibitory rate (%) as follows:
# ulcer formation inhibitory rate (%)=[1-(UI in sample group/UI in control group)]×100
# [2] = MTT: Cell Damaging and Protecting Effect Test; assay type: cell-based, rabbit (male Japanese White); details: rabbit, gastric mucosal cells, final concentration 10^-4 M, 4 hours; smaller value is better; read-out: MTT: cell damaging rate
# Description: MTT: Cell Damaging and Protecting Effect Test
# It is confirmed that there is no toxicity in cell level. Those having a toxicity in cell level are inappropriate as an anti-ulcer drug.
# A male Japanese White rabbit (2.5 to 3 kg) was anesthetized to death by Nembutal™ and, immediately thereafter, its stomach was removed. The greater curvature of the stomach was incised so as to remove the stomach contents therefrom. After the mucosal surface was washed with HBSS (Hanks' Balanced Salt Solution), the stomach in ice-cooled HBSS was transferred to a laboratory. Then, after the pyloric antrum was removed, the gastric corpus mucosa was separated by a spatula and then minced into 2 to 3 mm^3 pieces in BME (Basal Medium Eagle). Thereafter, these pieces were shaken at 120 to 130 cycles/minute for 15 minutes at 37° C. in BME 60ml containig 280 U/ml of dispase and 30 to 50 U/ml of collagenase. Here, the concentration of collagenase was appropriately changed for each lot in view of the state of cells. The pieces were washed twice with EBSS (Earle's Balanced Salt Solution) containing 1 mM of EDTA and then shaken in MEM (Minimum Essential Medium) containing 1 mM of EDTA at 37° C. for 5 minutes. Subsequently, they were shaken in the dispase and collagenase having the same concentrations as those mentioned above for 15 minutes so as to remove the supernatant and then further shaken at 37° C. for 50 to 60 minutes at 120 to 130 cycles/minute. Then, after being washed twice with HBSS, Ham F12 containing 2% of Ultrocer G™ was used to attain the concentration of 1×10^6 cells/ml. Thus formed suspension was dispensed in each well of a 96-well plate by 200 μl. The plate was incubated in the atmosphere composed of 5% CO2 and 95% air at 37° C. for three days so as to attain a confluent state and then subjected to MTT assay.
# The sample compound was dissolved in DMSO so as to attain a concentration of 10^-2 M and then diluted with HBSS containing 2% of Ultrocer G™ so as to attain a final concentration of 10^-4 M. To each group, which 8 wells were used for, 10 μl of MTT reagent were added immediately after 100 μl of the medium in each well were exchanged for same volume of the resulting solution of the sample compound. After being incubated in an atmosphere composed of 5% CO2 and 95% air at 37° C. for 4 hours, thus formed solution was centrifuged and then its supernatant was discarded. Subsequently, 100 μl of 100% ethanol were added to the residue so as to dissolve MTT formazan. Then, the absorbance (OD: 570 to 630) was measured by a microplate reader. This method utilizes a phenomenon in which MTT is changed to MTT formazan only by mitochondria of living cells so as to change color.
# The cell damaging or cell protecting effect of the sample compound at the final concentration of 10^-4 M was expressed as cell damaging rate (%) as follows:
# cell damaging rate (%)=[1-(absorbance in sample group/absorbance in control group)]×100
# Accordingly, the smaller value is better in the cell damaging rate.
# [3] = tested on: isolated gastric fundic gland; assay: CAP: Acid Secretion Inhibition Test In Vitro ([14C]-aminopyrine uptake); assay type: cell-based, rabbit (male Japanese White); details: Oryctolagus cuniculus, final concentration 10^-5 M, histamine 10^-5 M, rabbit gastric fundic gland; read-out: CAP: acid secretion inhibitory rate
# Procedure: CAP: Acid Secretion Inhibition Test In Vitro
# The acid secretion inhibitory activity in a cell level is studied. It can also be used for studying the mechanism of the effect. […]
# ii-a) Preparation of isolated gastric fundus gland suspension
# First, an isolated gastric fundic gland sample was prepared. Namely, a male Japanese White rabbit (2.5 to 3 kg) was anesthetized to death with Nembutal™ and then the abdomen was incised. Immediately thereafter, the stomach was removed and, after its pyloric and cardiac antrum were severed, incised along its greater curvature into two sheets. The gastric contents adhering to the mucosal surface was washed out with ice-cooled PBS (-) and then carefully washed therein. The gastric wall was spread on a cork board with its mucosal surface facing up and the feed and mucus thereon were completely removed with sterile gauze. The mucosa was separated therefrom by a spatula and then collected in ice-cooled PBS (-). After being washed twice with PBS (-), the mucosa was minced into 2-3mm^3 pieces by scissors. These pieces were further washed twice with a nutrient solution. The nutrient solution comprises 132.4 mM of NaCl, 5.4 mM of KCl, 5 mM of Na2 HPO4 ·12H2 O, 1 mM of NaH2 PO4 ·2H2 O, 1.2 mM of MgSO4, 1 mM of CaCl2, 25 mM of HEPES, 2mg/ml of glucose, and 1 mg/ml of BSA. Into 70 ml of the nutrient solution containing 1 mg/ml of collagenase, minced mucosal pieces were dispersed and intensely stirred in a conical flask with a stirrer at 37° C. for 40 to 60 minutes. During this period, 100% O2 was sprayed on the nutrient solution surface and the pH was appropriately measured such that it was immediately adjusted to pH 7.4, when the value was therebelow, with a base. The nutrient solution was added to the reaction solution so as to attain the total amount of about 200 ml. After being filtered through a mesh, the suspension was divisionally introduced into 50 ml centrifuge tubes and left for 15 minutes such that gastric fundic gland was deposited. The supernatant was repeatedly removed by an aspirator, dispersed in the nutrient solution, and then left such that the gastric fundic gland was washed three times. At this time, without using a pipette, the suspension was alternately introduced into two centrifuge tubes so as to effect dispersion. The number of cells was counted under microscope and adjusted to 1.6×10^6 cells/ml. […]
# ii-b) [^14 C]-aminopyrine uptake test
# Then, [^14 C]-aminopyrine uptake test was performed. After an Eppendorf tube was weighed, 10 μl (final concentration: 10^-5 M) of histamine dissolved in the above-mentioned nutrient solution, 10 μl (final concentration: 10^-5 M) of the test compound dissolved in DMSO, and 10 μl (final concentration: 0.05 μCi/ml) of [^14 C]-aminopyrine diluted with the nutrient solution were introduced therein and then 970 μl of the isolated gastric fundic gland suspension prepared above were added thereto. Subsequently, this mixture was shaken at 37° C. for 40 minutes at 125 cycles/minute. After being centrifuged for 30 minutes 200 μl of its supernatant was collected into a mini-vial, while the rest was removed by an aspirator. The gland pellet was completely dried as the tube with its lid being opened was kept for one night in a drying oven at 80° C. and then the lid was closed and the weight was determined at room temperature. Then 100 μl of 1N KOH were added thereto and the tube with its lid being closed was treated at 60° C. for 1 to 2 hours so as to dissolve the pellet. Then, the contents thereof were transferred to a mini-vial. Into the mini-vial containing the supernatant or gland pellet, 4 ml of Atomlite™ were added and then the radioactivity was measured by a liquid scintillation counter. Here, after the radioactivity of the gland pellet was corrected by using a sample in which 20 mM of NaSCN were added so as to cancel the hydrogen ion concentration gradient, the integration ratio of aminopyrine specifically trapped by the gland pellet was calculated. […]
SMILES,pKa [1],WIS: ulcer formation inhibitory rate (stress ulcer formation),anti-ulcer effect (in words) (stress ulcer formation; in vivo),"cytotoxicity at 4 h, 100 µM [2]",inhibition at 10 µM [3]
Cc1c(N(C)C)c(=O)n(-c2ccccc2)n1C [aminopyrine],5.0,–,–,–,–
"CC(C)Cc1cc(C(=O)N2CCN(CCOC(=O)c3ccc4c(c3)OCO4)CC2)ccc1OCc1ccc(F)cc1 [Example 10, 1-[4-(4-fluorobenzyloxy)-3-isobutylbenzoyl]-4-[2-(piperonyloyloxy)ethyl]piperazine]",–,54%,sufficient effects,34%,100%
"COc1cc(C(=O)N2CCN(CC(C)C)CC2)ccc1OCc1ccc(F)cc1.Cl [Example 7, 1-[4-(4-fluorobenzyloxy)-3-methoxybenzoyl]-4-isobutylpiperazine hydrochloride]",–,48%,–,-72%,100%
"CC(C)Cc1cc(C(=O)N2CCN(CC(C)C)CC2)ccc1OCc1ccc(C#N)cc1.Cl [Example 11, 1-[4-(4-cyanobenzyloxy)-3-isobutylbenzoyl]-4-isobutylpiperazine hydrochloride]",–,94%,–,-77%,100%
"CC(C)CN1CCN(C(=O)c2ccc(OCc3ccc(F)cc3)c(N)c2)CC1.Cl.Cl [Example 1, 1-[3-amino-4-(4-fluorobenzyloxy)benzoyl]-4-isobutylpiperazine dihydrochloride]",–,88%,–,–,–
